Experimental findings from ChEMBL document CHEMBL1201862, “PubChem BioAssay data set” (2004) are described below.

Among the test systems are A549; ACHN; CAKI-1; COLO 205; HCC 2998; HCT-116; HOP-92; M14; MCF7; NCI-H23; OVCAR-5; SF-268; SF-539; SK-MEL-2; SN12C; SR; SW-620; U-251; UACC-62; DLD-1.
Holding throughout (experiment): NCI tumour cell line growth inhibition, 48 h

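Grown in 96-well plates, cells were treated for 48 hours with each compound at five concentrations. Insufficient inhibition: endpoint recorded as highest concentration tested. GI50 is the concentration that inhibits growth by half.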 The source made the active and inactive calls. No stated cut-off is given here; in the data, active = GI50 up to about 1.1 µM and inactive = higher. Bounds are passed on as bounds.

Consider `COc1ccc(C(=C2C=CC=C2)c2ccc(OC)cc2)cc1`, for which the GI50 in the assay with A549 is 44.9 µM (inactive); in the assay with ACHN, 36.7 µM (inactive); with CAKI-1 it was 23 µM (inactive); with COLO 205 it was 23.7 µM (inactive); in the assay on HCC 2998, 19.3 µM (inactive); in the assay on HCT-116 it was 26.4 µM (inactive). Besides, the GI50 was 27.8 µM (inactive) with HOP-92; 61.1 µM (inactive) in the assay on M14; 13.1 µM (inactive) with MCF7; 34.2 µM (inactive) in the assay with NCI-H23; 32.3 µM (inactive) in the assay with OVCAR-5; 55.7 µM (inactive) in the assay with SF-268. Besides, the GI50 was 10.8 µM (inactive) in the assay on SF-539; 24.8 µM (inactive) with SK-MEL-2; 37.1 µM (inactive) in the assay on SN12C; 25.9 µM (inactive) in the assay with SR; 32.6 µM (inactive) in the assay with SW-620; 27.7 µM (inactive) in the assay on U-251. Also, the GI50 with UACC-62 is 33.7 µM (inactive).
On to `COC(=O)C1=C(C)N2CCSC2(C)C(C(=O)OC)C1c1cccc(Cl)c1` (configuration not stated), for which the GI50 was 20.4 µM (inactive) with A549; 24.8 µM (inactive) in the assay on ACHN; 14 µM (inactive) in the assay on CAKI-1; 18.5 µM (inactive) in the assay with COLO 205; 21 µM (inactive) in the assay with HCC 2998; 13.6 µM (inactive) in the assay with HCT-116. For the same compound, the GI50 in the assay on HOP-92 is 13.4 µM (inactive); in the assay with M14, 30.1 µM (inactive); in the assay with NCI-H23, 20.5 µM (inactive); in the assay on SF-268 it was 18.7 µM (inactive); with SF-539, 11.5 µM (inactive); in the assay with SK-MEL-2 it was 17.7 µM (inactive). Besides, the GI50 in the assay on SR was 15.5 µM (inactive); in the assay with SW-620, 37.1 µM (inactive); in the assay on UACC-62, 12.8 µM (inactive).
In the case of `COc1ccc(-c2c3c(nc4[nH]c(=S)[nH]c(=S)c24)CCCC3)cc1OC`, the GI50 in the assay with A549 is 21.3 µM (inactive); in the assay with ACHN, 51.1 µM (inactive); with CAKI-1, 34.7 µM (inactive); with COLO 205, 45 µM (inactive); with HCT-116 it was 29.4 µM (inactive); with M14, 28.6 µM (inactive). Moreover, the GI50 in the assay with MCF7 was 29.6 µM (inactive); with NCI-H23, 29.3 µM (inactive); with OVCAR-5, 28.8 µM (inactive); in the assay with SF-268 it was 31 µM (inactive); in the assay with SF-539, 15.3 µM (inactive); in the assay on SN12C, 13.5 µM (inactive). For the same compound, the GI50 with SR was 27.9 µM (inactive); with SW-620, 35.8 µM (inactive); in the assay on U-251 it was 18.4 µM (inactive); with UACC-62, 19.6 µM (inactive).
For the compound `CCOC(=O)C1(C(C)=O)OC(=O)c2cnccc21` (configuration not stated), the GI50 with A549, with ACHN, in the assay with CAKI-1, in the assay on COLO 205, with HCC 2998 and in the assay with HCT-116 was > 100 µM (inactive) in each case. The GI50 in the assay on HOP-92, in the assay on M14, with MCF7, with NCI-H23, in the assay with OVCAR-5 and with SF-268 was > 100 µM (inactive) in each case. Moreover, the GI50 in the assay on SF-539, with SK-MEL-2, in the assay with SN12C, in the assay on SR, in the assay with SW-620 and in the assay with U-251 was > 100 µM (inactive) throughout. In the assay on UACC-62, the GI50 was > 100 µM (inactive).
On to `CN(C)/N=C(/CC(O)(C(F)(F)F)C(F)(F)F)c1ccc([N+](=O)[O-])cc1`, for which the GI50 in the assay with A549, with ACHN, in the assay on CAKI-1, with COLO 205, in the assay on HCC 2998 and with HCT-116 was > 100 µM (inactive) throughout. Moreover, the GI50 in the assay with HOP-92, in the assay on M14, in the assay with NCI-H23, with OVCAR-5, with SF-268 and in the assay on SF-539 was > 100 µM (inactive) each time. Moreover, the GI50 in the assay with SK-MEL-2, in the assay with SN12C, with SR, with SW-620, in the assay with U-251 and with UACC-62 was > 100 µM (inactive) in each case.
Take `COP(=O)(OC)C(Cc1c[nH]c2ccccc12)NC(=O)OCc1ccccc1` (configuration not stated): the GI50 in the assay on A549, in the assay on ACHN, in the assay on CAKI-1, in the assay on COLO 205, in the assay on HCC 2998 and in the assay with HCT-116 was > 100 µM (inactive) throughout. Moreover, the GI50 with HOP-92, with M14, in the assay on MCF7, with NCI-H23, in the assay with OVCAR-5 and in the assay with SK-MEL-2 was > 100 µM (inactive) in each case. For the same compound, the GI50 in the assay with SN12C, in the assay with SR, in the assay with SW-620 and in the assay with U-251 was > 100 µM (inactive) throughout.
`Cc1cc(O)nc(NN2C(Cl)C(=O)C2c2ccco2)n1` (configuration not stated): the GI50 was 77.6 µM (inactive) in the assay on A549; 28.2 µM (inactive) in the assay on ACHN; 78.2 µM (inactive) in the assay with COLO 205; 60 µM (inactive) in the assay with HCC 2998; 43.4 µM (inactive) with HCT-116; 25.1 µM (inactive) in the assay on HOP-92. In addition, the GI50 in the assay on M14 was 33.8 µM (inactive); in the assay on NCI-H23, 28 µM (inactive); in the assay with OVCAR-5, > 100 µM (inactive); in the assay with SF-268 it was 29.4 µM (inactive); in the assay on SF-539, 22.6 µM (inactive); in the assay with SK-MEL-2, 27.6 µM (inactive). The GI50 with SN12C is 24.2 µM (inactive); in the assay on SR, 28.4 µM (inactive); in the assay on SW-620, 64.9 µM (inactive); in the assay on U-251 it was 30.5 µM (inactive); in the assay on UACC-62, 26.5 µM (inactive).
Consider `CCOC(=O)C1=C(C)N(c2ccc(Cl)cc2)C2(O)C=CC(Nc3ccc(Cl)cc3)=C3C(=O)N(c4ccccc4)C(=O)C312` (configuration not stated), for which the GI50 in the assay with A549 is 3.52 µM (inactive); with ACHN, 6.75 µM (inactive); in the assay on CAKI-1, 1.87 µM (inactive); in the assay on COLO 205, 2.44 µM (inactive); in the assay with HOP-92 it was 0.791 µM (active); in the assay on M14 it was 3.13 µM (inactive). Further, the GI50 in the assay with MCF7 is 2.05 µM (inactive); in the assay with NCI-H23, 5.42 µM (inactive); with OVCAR-5 it was 3.96 µM (inactive); with SF-268, 2.4 µM (inactive); in the assay with SF-539, 3.87 µM (inactive); in the assay with SK-MEL-2 it was 2.58 µM (inactive). Further, the GI50 with SN12C was 2.45 µM (inactive); in the assay with SR, 2.88 µM (inactive); in the assay with SW-620, 3.74 µM (inactive); with U-251, 4.85 µM (inactive); in the assay on UACC-62, 1.44 µM (inactive).
Consider `CC1=Nc2nc(Cl)cn2C(=O)C1(Cl)Cl`, for which the GI50 in the assay on A549, with ACHN, with CAKI-1, in the assay with COLO 205, in the assay on HCC 2998 and in the assay with HCT-116 was > 10 µM (inactive) in each case. Moreover, the GI50 with M14, in the assay with MCF7, in the assay with NCI-H23, in the assay with OVCAR-5, with SF-268 and with SF-539 was > 10 µM (inactive) throughout. Besides, the GI50 in the assay on SK-MEL-2, in the assay with SN12C, in the assay with SR, in the assay with SW-620, in the assay with U-251 and in the assay on UACC-62 was > 10 µM (inactive) in each case.
On to `CCOC(=O)CN(Cn1cncn1)Cn1cncn1`, for which the GI50 in the assay on A549 is 40.6 µM (inactive); in the assay on ACHN, 36.6 µM (inactive); in the assay with CAKI-1, 56 µM (inactive); with COLO 205, 36.9 µM (inactive); in the assay on DLD-1 it was 34.9 µM (inactive); with HCC 2998 it was 33.2 µM (inactive). For the same compound, the GI50 in the assay on HCT-116 is 30.8 µM (inactive); in the assay on HOP-92, > 100 µM (inactive); with M14 it was > 10 µM (inactive); in the assay with OVCAR-5, > 100 µM (inactive); in the assay with SK-MEL-2, 38.2 µM (inactive); in the assay with SN12C, 29.4 µM (inactive). In addition, the GI50 was 24.1 µM (inactive) with SW-620, 17.9 µM (inactive) in the assay on U-251 and 33.3 µM (inactive) with UACC-62.
Consider `C/C(N)=N/OCc1nc(C)no1`, for which the GI50 in the assay on A549, in the assay with ACHN, in the assay on CAKI-1, with COLO 205, in the assay with HCC 2998 and with HCT-116 was > 100 µM (inactive) each time. The GI50 in the assay with M14, in the assay with MCF7, in the assay on NCI-H23, in the assay with SF-268, with SF-539 and in the assay on SN12C was > 100 µM (inactive) each time. Further, the GI50 in the assay with SR, in the assay with SW-620, in the assay with U-251 and in the assay on UACC-62 was > 100 µM (inactive) in each case.
On to `Oc1[nH]c(Nc2cccc(Br)c2)nc2ncnc1-2`, for which the GI50 in the assay with A549 was > 100 µM (inactive); with ACHN, > 100 µM (inactive); with CAKI-1, > 100 µM (inactive); with COLO 205 it was > 100 µM (inactive); with HCC 2998, > 100 µM (inactive); with HCT-116 it was 53.8 µM (inactive). The GI50 with HOP-92 is 52 µM (inactive); in the assay on M14 it was > 100 µM (inactive); in the assay with MCF7, > 100 µM (inactive); in the assay on NCI-H23, > 100 µM (inactive); in the assay with OVCAR-5 it was > 100 µM (inactive); with SF-268, 56.4 µM (inactive). In addition, the GI50 with SK-MEL-2 was 23.6 µM (inactive); with SR, 76.4 µM (inactive); in the assay on SW-620 it was > 100 µM (inactive); in the assay with UACC-62, > 100 µM (inactive).
